The values that follow come from patent EP0268396B1, “4-(benzoyl)thiophene(or furan)-sulfonamide and derivatives thereof for the topical treatment of elevated intraocular pressures” (Merck & Co., Inc., priority 1986, dated 1988).

Structures can show the parent of a compound that is named as a salt.

The subject of this assay is a-chymotrypsinized rabbit eye. In words: Effect of topically administered drug on the α-chymotrypsin-induced elevation of IOP in the rabbit. It counts as in vivo. Particulars: dose 0.5 %, single 50 µl drop applied topically in hydroxyethylcellulose (HEC) vehicle; maximum, statistically significant drop in IOP during the 5 hour duration of the assay.
For the compound `NS(=O)(=O)c1cc(C(=O)c2cccc(CNCc3ccccn3)c2)cs1` [3-( [drawing] CH2NHCH2-), 4-[3-(2-Pyridylmethylaminomethyl)]benzoylthiophene-2-sulfonamide dihydrochloride], the “MAX. IOP DROP (mm Hg)” value is listed as -4.0 mm Hg.
Regarding `CC(C)CN(C)Cc1cccc(C(=O)c2csc(S(N)(=O)=O)c2)c1` [3-i-BuN(CH3)CH2-, 4-[3-(N-lsobutyl-N-methyl)aminomethyl]benzoylthiophene-2 sulfonamide], the “MAX. IOP DROP (mm Hg)” value is given as -4.0 mm Hg.
The value for `CC(C)CNCc1cccc(C(=O)c2csc(S(N)(=O)=O)c2)c1` [Example 3-i-BuNHCH2-, 4-[3-(lsobutylaminomethyl)benzoyl]thiophene-2-sulfonamid] was -7.3 mm Hg; that for `CCCCNCc1ccc(C(=O)c2csc(S(N)(=O)=O)c2)cc1` [Example 4-n-BuNHCH2-] was -3.0 mm Hg.
